Experimental data from PubChem BioAssay AID2060624 (Molecular Pharmacology Branch, DTP, NCI, 2025).

System: 217524-143-R1-J4-PDC spheroids with HUVEC/MSC, viability
Assay: Anticancer human tumor 217524-143-R1-J4-PDC patient-derived pancreatic carcinoma cell line growth inhibition [CLK]
Conditions: for IC50: curve of first compound; for viability, T/C: stronger effect = lower value
In short: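 Multi-cell-type spheroids combined patient-derived tumor cells with HUVEC endothelial cells and human mesenchymal stem cells. Paired agents were dosed in half-log steps down from about clinical Cmax, or from 10 microM where Cmax was unknown.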
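Further: spheroids exposed to agents for seven days before reading.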
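Wherever viability, T/C is given: 100% = DMSO vehicle control viability.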

**Q.** Which IC50 (second compound 0.0316 µM) does the source give for `CC(C)CC(NC(=O)C(Cc1ccccc1)NC(=O)c1cnccn1)B(O)O` (centres undefined) + CN1CCN(c2cc(C(=O)Nc3cc4cc(-c5cnn(C)c5)ccc4cn3)ccn2)CC1 here?
**A.** 3.03 nM

**Q.** And the IC50 (second compound 0.1 µM)?
**A.** 2.29 nM

**Q.** What about the IC50 (second compound 0.316 µM) of the same compound?
**A.** < 0.949 nM

**Q.** What about the IC50 (second compound 1 µM) of the same compound?
**A.** < 0.949 nM

**Q.** And the IC50 (second compound 3.16 µM)?
**A.** < 0.949 nM

**Q.** And the IC50 (second compound 10 µM)?
**A.** < 0.949 nM

**Q.** And the viability, T/C (second compound 0.0316 µM, first compound 0.000949 µM)?
**A.** 89.7%

**Q.** What about the viability, T/C (second compound 0.0316 µM, first compound 0.003 µM) of the same compound?
**A.** 49.9%

**Q.** And the viability, T/C (second compound 0.0316 µM, first compound 0.00949 µM)?
**A.** 22.4%

**Q.** And the viability, T/C (second compound 0.0316 µM, first compound 0.03 µM)?
**A.** 6.55%

**Q.** And the viability, T/C (second compound 0.0316 µM, first compound 0.0949 µM)?
**A.** 5.49%

**Q.** What about the viability, T/C (second compound 0.0316 µM, first compound 0.3 µM) of the same compound?
**A.** 2.12%

**Q.** And the viability, T/C (second compound 0.1 µM, first compound 0.000949 µM)?
**A.** 58.3%

**Q.** What about the viability, T/C (second compound 0.1 µM, first compound 0.003 µM) of the same compound?
**A.** 47.5%

**Q.** What about the viability, T/C (second compound 0.1 µM, first compound 0.00949 µM) of the same compound?
**A.** 14.4%

**Q.** And the viability, T/C (second compound 0.1 µM, first compound 0.03 µM)?
**A.** 5.38%

**Q.** And the viability, T/C (second compound 0.1 µM, first compound 0.0949 µM)?
**A.** 3.86%

**Q.** And the viability, T/C (second compound 0.1 µM, first compound 0.3 µM)?
**A.** 2.25%

**Q.** What about the viability, T/C (second compound 0.316 µM, first compound 0.000949 µM) of the same compound?
**A.** 25%

**Q.** What about the viability, T/C (second compound 0.316 µM, first compound 0.003 µM) of the same compound?
**A.** 24%

**Q.** What about the viability, T/C (second compound 0.316 µM, first compound 0.00949 µM) of the same compound?
**A.** 3.44%

**Q.** What about the viability, T/C (second compound 0.316 µM, first compound 0.03 µM) of the same compound?
**A.** 1.85%

**Q.** And the viability, T/C (second compound 0.316 µM, first compound 0.0949 µM)?
**A.** 1.33%

**Q.** And the viability, T/C (second compound 0.316 µM, first compound 0.3 µM)?
**A.** 0.89%

**Q.** What about the viability, T/C (second compound 1 µM, first compound 0.000949 µM) of the same compound?
**A.** 1.64%

**Q.** And the viability, T/C (second compound 1 µM, first compound 0.003 µM)?
**A.** 0.62%

**Q.** And the viability, T/C (second compound 1 µM, first compound 0.00949 µM)?
**A.** 0.77%

**Q.** And the viability, T/C (second compound 1 µM, first compound 0.03 µM)?
**A.** 0.46%

**Q.** And the viability, T/C (second compound 1 µM, first compound 0.0949 µM)?
**A.** 0.4%

**Q.** And the viability, T/C (second compound 1 µM, first compound 0.3 µM)?
**A.** 0.42%

**Q.** And the viability, T/C (second compound 3.16 µM, first compound 0.000949 µM)?
**A.** 0.67%

**Q.** What about the viability, T/C (second compound 3.16 µM, first compound 0.003 µM) of the same compound?
**A.** 0.98%

**Q.** And the viability, T/C (second compound 3.16 µM, first compound 0.00949 µM)?
**A.** 2.38%

**Q.** What about the viability, T/C (second compound 3.16 µM, first compound 0.03 µM) of the same compound?
**A.** 1.54%

**Q.** And the viability, T/C (second compound 3.16 µM, first compound 0.0949 µM)?
**A.** 0.63%

**Q.** And the viability, T/C (second compound 3.16 µM, first compound 0.3 µM)?
**A.** 0.66%

**Q.** What about the viability, T/C (second compound 10 µM, first compound 0.000949 µM) of the same compound?
**A.** 0.3%

**Q.** And the viability, T/C (second compound 10 µM, first compound 0.003 µM)?
**A.** 0.19%

**Q.** What about the viability, T/C (second compound 10 µM, first compound 0.00949 µM) of the same compound?
**A.** 0.47%

**Q.** What about the viability, T/C (second compound 10 µM, first compound 0.03 µM) of the same compound?
**A.** 0.32%

**Q.** And the viability, T/C (second compound 10 µM, first compound 0.0949 µM)?
**A.** 0.23%

**Q.** What about the viability, T/C (second compound 10 µM, first compound 0.3 µM) of the same compound?
**A.** 0.22%

**Q.** What does the source list for `O=C(c1cc(Cc2n[nH]c(=O)c3ccccc23)ccc1F)N1CCN(C(=O)C2CC2)CC1` + CN1CCN(c2cc(C(=O)Nc3cc4cc(-c5cnn(C)c5)ccc4cn3)ccn2)CC1?
**A.** IC50 (second compound 0.0316 µM): > 10000 nM; IC50 (second compound 0.1 µM): 537 nM; IC50 (second compound 0.316 µM): < 31.6 nM; IC50 (second compound 1 µM): < 31.6 nM; IC50 (second compound 3.16 µM): < 31.6 nM; IC50 (second compound 10 µM): < 31.6 nM; viability, T/C (second compound 0.0316 µM, first compound 0.0316 µM): 76.5%; viability, T/C (second compound 0.0316 µM, first compound 0.1 µM): 91.6%; viability, T/C (second compound 0.0316 µM, first compound 0.316 µM): 71.2%; viability, T/C (second compound 0.0316 µM, first compound 1 µM): 90.3%; viability, T/C (second compound 0.0316 µM, first compound 3.16 µM): 68.5%; viability, T/C (second compound 0.0316 µM, first compound 10 µM): 64.3%; viability, T/C (second compound 0.1 µM, first compound 0.0316 µM): 51.5%; viability, T/C (second compound 0.1 µM, first compound 0.1 µM): 46.6%; viability, T/C (second compound 0.1 µM, first compound 0.316 µM): 49.7%; viability, T/C (second compound 0.1 µM, first compound 1 µM): 58.5%; viability, T/C (second compound 0.1 µM, first compound 3.16 µM): 49.8%; viability, T/C (second compound 0.1 µM, first compound 10 µM): 43.5%; viability, T/C (second compound 0.316 µM, first compound 0.0316 µM): 24.3%; viability, T/C (second compound 0.316 µM, first compound 0.1 µM): 22.4%; viability, T/C (second compound 0.316 µM, first compound 0.316 µM): 20%; viability, T/C (second compound 0.316 µM, first compound 1 µM): 18%; viability, T/C (second compound 0.316 µM, first compound 3.16 µM): 21.4%; viability, T/C (second compound 0.316 µM, first compound 10 µM): 17.5%; viability, T/C (second compound 1 µM, first compound 0.0316 µM): 2.03%; viability, T/C (second compound 1 µM, first compound 0.1 µM): 1.38%; viability, T/C (second compound 1 µM, first compound 0.316 µM): 1.73%; viability, T/C (second compound 1 µM, first compound 1 µM): 1.56%; viability, T/C (second compound 1 µM, first compound 3.16 µM): 1.8%; viability, T/C (second compound 1 µM, first compound 10 µM): 2%; viability, T/C (second compound 3.16 µM, first compound 0.0316 µM): 0.89%; viability, T/C (second compound 3.16 µM, first compound 0.1 µM): 1.08%; viability, T/C (second compound 3.16 µM, first compound 0.316 µM): 0.76%; viability, T/C (second compound 3.16 µM, first compound 1 µM): 1.05%; viability, T/C (second compound 3.16 µM, first compound 3.16 µM): 0.74%; viability, T/C (second compound 3.16 µM, first compound 10 µM): 0.87%; viability, T/C (second compound 10 µM, first compound 0.0316 µM): 0.16%; viability, T/C (second compound 10 µM, first compound 0.1 µM): 0.22%; viability, T/C (second compound 10 µM, first compound 0.316 µM): 0.23%; viability, T/C (second compound 10 µM, first compound 1 µM): 0.22%; viability, T/C (second compound 10 µM, first compound 3.16 µM): 0.3%; viability, T/C (second compound 10 µM, first compound 10 µM): 0.31%
